COC(C)(C)C [2-methoxy-2-methylpropane]
Liquid, Brillouin light scattering
Details	speed of sound [m/s]
388.22 K, 1000 kPa	646.4
388.24 K, 2500 kPa	670.7
388.24 K, 10000 kPa	768.1
388.25 K, 8500 kPa	751.1
393.11 K, 5500 kPa	691.8
393.13 K, 1000 kPa	619
393.13 K, 4000 kPa	669.1
393.13 K, 8500 kPa	736.3
393.16 K, 2500 kPa	643.2
393.22 K, 7000 kPa	714.5
393.22 K, 10000 kPa	753.4
398.1 K, 5500 kPa	671.4
398.11 K, 1000 kPa	594.9
398.18 K, 2500 kPa	624.4
398.18 K, 4000 kPa	647.1
398.2 K, 8500 kPa	715.9
398.24 K, 10000 kPa	733.5
398.25 K, 7000 kPa	692.8
403.07 K, 7000 kPa	672.1
403.11 K, 2500 kPa	602.6
403.12 K, 1000 kPa	574.7
403.12 K, 4000 kPa	627.2
403.14 K, 5500 kPa	649.2
403.14 K, 10000 kPa	716.1
403.16 K, 8500 kPa	697.5
408.09 K, 7000 kPa	657.5
408.16 K, 4000 kPa	605.6
408.19 K, 5500 kPa	631.8
408.21 K, 8500 kPa	679.5
408.23 K, 2500 kPa	576.4
408.24 K, 10000 kPa	697.8
413.06 K, 10000 kPa	682.3
413.08 K, 4000 kPa	585.4
413.14 K, 8500 kPa	661.5
413.16 K, 5500 kPa	612.9
413.19 K, 2500 kPa	557.9
413.24 K, 7000 kPa	638.1
418.07 K, 4000 kPa	565.2
418.07 K, 7000 kPa	617.5
418.08 K, 10000 kPa	661.5
418.11 K, 8500 kPa	639.1
418.19 K, 2500 kPa	535.7
418.23 K, 5500 kPa	588.6
423.05 K, 7000 kPa	595.1
423.06 K, 2500 kPa	511.7
423.06 K, 4000 kPa	541.9
423.11 K, 8500 kPa	624.1
423.12 K, 10000 kPa	647.8
423.19 K, 5500 kPa	571.4
428.11 K, 2500 kPa	485.7
428.14 K, 5500 kPa	549.7
428.15 K, 7000 kPa	575.1
428.18 K, 4000 kPa	520.9
428.19 K, 8500 kPa	605.5
428.2 K, 10000 kPa	625.5
433.05 K, 2500 kPa	463.5
433.05 K, 7000 kPa	560.1
433.08 K, 10000 kPa	610.8
433.18 K, 4000 kPa	498.5
433.22 K, 5500 kPa	530.9
433.22 K, 8500 kPa	586.5
438.11 K, 2500 kPa	443
438.13 K, 7000 kPa	540.4
438.13 K, 10000 kPa	590.9
438.14 K, 5500 kPa	507.9
438.16 K, 8500 kPa	569
438.24 K, 4000 kPa	477.2
443.06 K, 4000 kPa	454.3
443.08 K, 5500 kPa	487.7
443.12 K, 10000 kPa	575
443.14 K, 8500 kPa	548.7
443.18 K, 2500 kPa	418.1
443.23 K, 7000 kPa	519.9
448.06 K, 2500 kPa	394.3
448.07 K, 5500 kPa	467.5
448.16 K, 4000 kPa	435.5
448.22 K, 7000 kPa	500.2
448.23 K, 8500 kPa	529.7
448.23 K, 10000 kPa	557.1
453.07 K, 5500 kPa	448.8
453.18 K, 4000 kPa	411.5
453.18 K, 10000 kPa	544
453.2 K, 2500 kPa	372.4
453.21 K, 8500 kPa	515.2
453.24 K, 7000 kPa	483.8
458.06 K, 4000 kPa	389.5
458.08 K, 7000 kPa	464.6
458.12 K, 10000 kPa	524.8
458.18 K, 2500 kPa	350.8
458.22 K, 8500 kPa	497.9
458.24 K, 5500 kPa	426.1
463.1 K, 10000 kPa	507.9
463.13 K, 2500 kPa	326.7
463.14 K, 8500 kPa	480.9
463.16 K, 5500 kPa	409.6
463.23 K, 4000 kPa	368.2
463.25 K, 7000 kPa	445.2
468.06 K, 7000 kPa	427.3
468.1 K, 10000 kPa	491.9
468.15 K, 8500 kPa	459.5
468.19 K, 4000 kPa	347.2
468.22 K, 5500 kPa	389.7
473.07 K, 4000 kPa	324.5
473.11 K, 10000 kPa	479
473.12 K, 8500 kPa	443.1
473.15 K, 7000 kPa	408.5
473.22 K, 5500 kPa	366

Details	speed of sound [m/s]
393.16 K, Liquid, Brillouin Light Scattering	609.1
398.07 K, Gas, Brillouin light scattering	170
398.11 K, Liquid, Brillouin Light Scattering	580.1
403.24 K, Liquid, Brillouin Light Scattering	558
408.22 K, Gas, Brillouin light scattering	167.8
408.23 K, Liquid, Brillouin Light Scattering	537.6
413.2 K, Liquid, Brillouin Light Scattering	515.8
418.16 K, Gas, Brillouin light scattering	164.7
418.24 K, Liquid, Brillouin Light Scattering	494.4
423.15 K, Liquid, Brillouin Light Scattering	476
428.21 K, Gas, Brillouin light scattering	161.2
428.24 K, Liquid, Brillouin Light Scattering	453.8
433.05 K, Liquid, Brillouin Light Scattering	430.3
438.17 K, Gas, Brillouin light scattering	155.3
438.19 K, Liquid, Brillouin Light Scattering	405.8
443.09 K, Liquid, Brillouin Light Scattering	387.3
448.13 K, Gas, Brillouin light scattering	148.4
448.23 K, Liquid, Brillouin Light Scattering	360.3
453.1 K, Liquid, Brillouin Light Scattering	339.5
458.19 K, Liquid, Brillouin Light Scattering	313.6
458.29 K, Gas, Brillouin light scattering	139.8
463.17 K, Gas, Brillouin light scattering	135.7
463.23 K, Liquid, Brillouin Light Scattering	287.1
468.18 K, Liquid, Brillouin Light Scattering	265
468.26 K, Gas, Brillouin light scattering	130.6
473.15 K, Gas, Brillouin light scattering	124.5
473.17 K, Liquid, Brillouin Light Scattering	236.5
478.08 K, Gas, Brillouin light scattering	119
478.08 K, Liquid, Brillouin Light Scattering	206.1
483.2 K, Liquid, Brillouin Light Scattering	177.7
483.29 K, Gas, Brillouin light scattering	111.8
488.11 K, Liquid, Brillouin Light Scattering	142.8
488.15 K, Gas, Brillouin light scattering	104.9
493.06 K, Liquid, Brillouin Light Scattering	103.7
493.15 K, Gas, Brillouin light scattering	96.9

Reference: the NIST ThermoML archive (doi:10.1021/acs.jced.6b00202)
